Data from US20050026896A1, “Platinum(II) and platinum(IV) complexes and their use” (Faustus Forschungs Cie. Translational Cancer Research GmbH, priority 2001, published 2005).

System: GMP as DNA constituent
Assay: Reactivity with GMP: adduct formation under physiological and patho-physiological conditions
Assay type: biochemical
Text: The reactivity of the compound cis-dichloro-bis(2-ethanolamine)platinum(II) was examined under physiological and patho-physiological conditions (FIG. 2). […] Chem. 39(4): 836-842 (2000); Choi, Sunhee; Mahalingaiah, Shruthi; Delaney, Sarah; Neale, Nathan R.; Masood, Syed “Substitution and Reduction of Platinum(IV) Complexes by a Nucleotide, Guanosine 5′-Monophosphate” Inorg. Chem. 38(8): 1800-1805 (1999); Chen, Yu; Guo, Zijian; Parkinson, John A.; Sadler, Peter J. “Kinetic control of reactions of a sterically hindered platinum picoline anticancer complex with guanosine 5′-monophosphate and glutathione” J. Chem. Soc., Dalton Trans.), 21: 3577-3586 (1998); Bloemink, Marieke J.; Perez, Janice M. J.; Heetebrij, Robert J.; Reedijk, Jan “The new anticancer drug [(2R)-aminomethylpyrrolidine](1,1-cyclobutanedicarboxylato)platinum(II) and its toxic S enantiomer do interact differently with nucleic acids” J. Biol. Inorg. Chem. 4(5): 554-567 (1999).
Similar to Example 8, the reactivity of the compound bis(2-ethanolatoamine-κ^2N,O)platinum(II) (see Example 8 for the synthesis) was examined. In this respect, the proportion of the nucleotide not modified by the active substance was measured.

Structure (SMILES) | speed of reaction with the nucleotide (proportion of the nucleotide not modified by the active substance) (patho-physiological conditions (pH 6) compared to tissue free of disease (pH 7.4), FIG. 3) | selectivity of reaction, patho-physiological versus physiological conditions (FIG. 2, comparison of left and right diagram) | reactivity: reaction with the biological target (formation of adducts with GMP) (patho-physiological conditions (FIG. 2, left diagram)) | reactivity: reaction with the biological target (formation of adducts with GMP) (physiological conditions (FIG. 2, right diagram))
C1C[O][Pt]2([NH]1)[NH]CC[O]2 [(SP-4-2)-[bis(2-aminoethanolato)-κ^2N,O]platinum(II)] | significantly increased speed | – | – | –
OCC[NH][Pt]([Cl])([Cl])[NH]CCO [(SP-4-2)-dichloro[bis(2-hydroxyethylamine)]platinum(II)] | – | Selectivity is therefore present | rapid reaction | clearly runs slower
